One assay deals with shunt pathway. Description: Test Code 036 (C-Shunt inhibitor): lysis of human erythrocytes in autologous serum via shunt pathway activated by cobra venom factor. The following applies: activity in wells, twofold serial dilution; higher well number indicates higher activity. The class given is biochemical. From the text:
(§1) An active inhibitor protects C2 from C1 and C4; (ii) Test Code 035 (C3-C9 inhibitor)--This test determines the ability of the late components of human complement (C3-C9) to lyse EAC 142 in the presence of appropriate dilutions of the test compound. An active inhibitor protects EAC 142 from lysis by human C3-C9; (iii) Test Code 036 (C-Shunt inhibitor)--In this test human erythrocytes rendered fragile are lysed in autologous serum via the shunt pathway activated by cobra venom factor in the presence of appropriate dilutions of the test compound. Inhibition of the shunt pathway results in failure of lysis; (iv) Forssman Vasculitis Test--Here, the well known complement dependent lesion, Forssman vasculitis, is produced in guinea pigs by intradermal injection of rabbit anti-Forssman antiserum. The lesion is measured in terms of diameter, edema and hemorrhage and the extent to which a combined index of these is inhibited by prior intraperitoneal injection of the test compound at 200 mg/kg is then reported, unless otherwise stated; (v) Forssman Shock Test--Lethal shock is produced in guinea pigs by an i.v. injection of anti-Forssman antiserum and the harmonic mean death time of treated guinea pigs is compared with that of the simultaneous controls; (vi) Complement Level Reduction Test--In this test, the above dosed guinea pigs, or others are bled for serum and the complmenet level is determined in undiluted serum by the capillary tube method of U.S. Pat. No. 3,876,376 and compared to undosed control guinea pigs; (vii) Cap 50 Test--Here, appropriate amounts of the test compound are added to a pool of guinea pig serum in vitro, after which the undiluted serum capillary tube assay referred to above is run. The concentration of compound inhibiting 50% is reported.
(§2) **Activity in wells, a serial dilution assay; higher well number indicate
(§3) higher activity. The serial dilutions are twofold-

Another assay relates to human complement (C3-C9). Description: Test Code 035 (C3-C9 inhibitor): lysis of EAC 142 by late components of human complement. As to conditions: activity in wells, twofold serial dilution; higher well number indicates higher activity. The class given is biochemical.
Excerpt: as §1, §2, §3

For the next assay, the target named is human C1 (Homo sapiens, UniProt P09871). Description: Test Code 026 (C1 inhibitor): activated human C1 destroys fluid phase human C2 in presence of C4. In kind it is biochemical. As to conditions: activity in wells, twofold serial dilution; higher well number indicates higher activity.
Chain of human C1 (P09871 16-688): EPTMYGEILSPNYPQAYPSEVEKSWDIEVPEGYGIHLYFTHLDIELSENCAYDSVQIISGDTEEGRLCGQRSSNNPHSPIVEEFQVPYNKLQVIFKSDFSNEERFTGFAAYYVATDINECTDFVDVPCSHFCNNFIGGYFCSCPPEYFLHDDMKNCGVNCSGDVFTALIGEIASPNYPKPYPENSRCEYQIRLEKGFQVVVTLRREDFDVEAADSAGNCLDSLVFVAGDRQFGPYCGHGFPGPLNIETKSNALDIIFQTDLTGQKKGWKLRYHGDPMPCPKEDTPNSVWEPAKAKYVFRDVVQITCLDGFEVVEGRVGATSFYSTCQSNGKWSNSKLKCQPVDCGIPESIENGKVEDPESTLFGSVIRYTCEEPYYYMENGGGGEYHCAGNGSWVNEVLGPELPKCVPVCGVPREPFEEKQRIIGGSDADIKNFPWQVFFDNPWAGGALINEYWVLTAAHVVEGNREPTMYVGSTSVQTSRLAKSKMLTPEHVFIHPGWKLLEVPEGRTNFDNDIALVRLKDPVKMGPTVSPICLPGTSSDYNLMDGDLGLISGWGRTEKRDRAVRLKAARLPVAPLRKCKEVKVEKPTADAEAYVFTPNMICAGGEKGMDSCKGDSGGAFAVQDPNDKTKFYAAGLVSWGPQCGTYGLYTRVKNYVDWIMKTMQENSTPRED
Chain of human C1 (P00736 18-705 partner): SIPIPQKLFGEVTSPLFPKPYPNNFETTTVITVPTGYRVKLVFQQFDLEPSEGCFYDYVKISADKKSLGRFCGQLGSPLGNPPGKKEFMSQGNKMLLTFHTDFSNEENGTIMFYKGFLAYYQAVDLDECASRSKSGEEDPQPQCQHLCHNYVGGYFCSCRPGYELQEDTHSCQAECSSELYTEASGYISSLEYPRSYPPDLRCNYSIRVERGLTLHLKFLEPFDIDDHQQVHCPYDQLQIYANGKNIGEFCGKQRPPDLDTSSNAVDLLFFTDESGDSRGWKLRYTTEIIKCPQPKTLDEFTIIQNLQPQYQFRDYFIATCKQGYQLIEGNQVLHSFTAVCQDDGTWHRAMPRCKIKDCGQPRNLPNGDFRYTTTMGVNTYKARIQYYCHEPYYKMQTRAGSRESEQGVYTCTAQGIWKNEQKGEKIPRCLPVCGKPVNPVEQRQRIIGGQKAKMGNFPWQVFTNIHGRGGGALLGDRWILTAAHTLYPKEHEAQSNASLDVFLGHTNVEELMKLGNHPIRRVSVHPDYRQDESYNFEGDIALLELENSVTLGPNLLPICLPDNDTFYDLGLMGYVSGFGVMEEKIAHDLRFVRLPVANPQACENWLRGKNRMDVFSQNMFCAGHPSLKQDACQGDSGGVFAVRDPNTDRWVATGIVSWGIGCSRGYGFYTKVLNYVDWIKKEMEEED
Chain of human C1 (P02745 23-245 partner): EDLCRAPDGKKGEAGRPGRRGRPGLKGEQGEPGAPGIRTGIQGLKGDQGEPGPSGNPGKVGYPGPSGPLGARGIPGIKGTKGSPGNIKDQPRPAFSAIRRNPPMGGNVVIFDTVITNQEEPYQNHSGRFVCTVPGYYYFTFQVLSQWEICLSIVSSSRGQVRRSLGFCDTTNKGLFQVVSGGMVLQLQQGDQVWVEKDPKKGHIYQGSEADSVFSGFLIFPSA
Chain of human C1 (P02746 28-253 partner): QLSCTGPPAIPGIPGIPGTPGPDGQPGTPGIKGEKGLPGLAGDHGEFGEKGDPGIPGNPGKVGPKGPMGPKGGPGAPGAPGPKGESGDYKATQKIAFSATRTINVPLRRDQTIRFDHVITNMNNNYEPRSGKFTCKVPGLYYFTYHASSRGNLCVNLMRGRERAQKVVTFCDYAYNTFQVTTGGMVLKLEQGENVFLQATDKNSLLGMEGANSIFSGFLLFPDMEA
Chain of human C1 (P02747 29-245 partner): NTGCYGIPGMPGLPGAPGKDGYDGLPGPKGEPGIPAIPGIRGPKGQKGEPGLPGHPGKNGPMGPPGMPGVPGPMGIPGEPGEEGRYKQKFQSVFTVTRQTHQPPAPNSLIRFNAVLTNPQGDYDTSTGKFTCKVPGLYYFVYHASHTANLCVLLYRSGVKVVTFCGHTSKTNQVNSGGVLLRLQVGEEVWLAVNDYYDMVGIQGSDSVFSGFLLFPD
Excerpt: as §1, §2, §3

The next assay deals with whole complement. Description: In vivo activity (Guinea Pig): serum whole complement by capillary tube assay after dosing. As to conditions: Intraperitoneal, 200 mg/kg.

SMILES strings stand for the structures. Structures can show the parent of a compound that is named as a salt.

On to `O=S(=O)(O)OC[C@H]1O[C@@H](OC[C@H]2O[C@H](OC[C@H]3OC(OS(=O)(=O)O)[C@H](OS(=O)(=O)O)[C@@H](OS(=O)(=O)O)[C@@H]3OS(=O)(=O)O)[C@H](OS(=O)(=O)O)[C@@H](OS(=O)(=O)O)[C@H]2OS(=O)(=O)O)[C@H](OS(=O)(=O)O)[C@@H](OS(=O)(=O)O)[C@@H]1O[C@H]1O[C@H](COS(=O)(=O)O)[C@@H](O[C@H]2O[C@H](COS(=O)(=O)O)[C@@H](O[C@H]3O[C@H](COS(=O)(=O)O)[C@@H](O[C@H]4O[C@H](COS(=O)(=O)O)[C@@H](O[C@H]5O[C@H](COS(=O)(=O)O)[C@@H](O[C@H]6O[C@H](COS(=O)(=O)O)[C@@H](OS(=O)(=O)O)[C@H](OS(=O)(=O)O)[C@H]6OS(=O)(=O)O)[C@H](OS(=O)(=O)O)[C@H]5OS(=O)(=O)O)[C@H](OS(=O)(=O)O)[C@H]4OS(=O)(=O)O)[C@H](OS(=O)(=O)O)[C@H]3OS(=O)(=O)O)[C@H](OS(=O)(=O)O)[C@H]2OS(=O)(=O)O)[C@H](OS(=O)(=O)O)[C@H]1OS(=O)(=O)O` (stereo partly drawn) [drawing 17, O-α-D-glucopyranosyl(1→4)-O-α-D-glucopyranosyl(1→4)-O-α-D-glucopyranosyl(1→4)-O-α-D-glucopyranosyl(1→4)-O-α-D-glucopyranosyl(1→4)-O-α-D-glucopyranosyl(1→4)-O-β-D-glucopyranosyl(1→6)-O-α-D-galactopyranosyl(1→6)-D-glucopyranose [(glc 1α,4)6 glc 1β,6 gal 1α,6 glc] nonacosakis (H-sulfate), non-acosasodium salt], for which the “Shunt Inhibition 036 Wells” value in the assay on shunt pathway was “+5 Wells”. Moreover, in the assay with human complement (C3-C9), the “C-Late 035 Wells” value was “+3 Wells”. For the same compound, on human C1, the “C1 026 Wells” value was “+9 Wells”.
`O=S(=O)(O)OC[C@H]1O[C@H](OC[C@H]2O[C@H](OS(=O)(=O)O)[C@H](OS(=O)(=O)O)[C@@H](OS(=O)(=O)O)[C@@H]2OS(=O)(=O)O)[C@H](OS(=O)(=O)O)[C@@H](OS(=O)(=O)O)[C@H]1OS(=O)(=O)O`: the “C1 026 Wells” value at human C1 was “+8 Wells”.
For the compound `O=S(=O)(O)OC[C@H]1O[C@@H](OC[C@H]2O[C@H](OC[C@H]3O[C@H](OS(=O)(=O)O)[C@H](OS(=O)(=O)O)[C@@H](OS(=O)(=O)O)[C@@H]3OS(=O)(=O)O)[C@H](OS(=O)(=O)O)[C@@H](OS(=O)(=O)O)[C@H]2OS(=O)(=O)O)[C@H](OS(=O)(=O)O)[C@@H](OS(=O)(=O)O)[C@@H]1O[C@@H]1O[C@H](COS(=O)(=O)O)[C@@H](OS(=O)(=O)O)[C@H](OS(=O)(=O)O)[C@H]1OS(=O)(=O)O` [drawing 13, O-β-D-glucopyranosyl(1→4)-O-β-D-glucopyranosyl(1→6)-O-α-D-galactopyranosyl(1→6)-α-D-glucopyranose [glc 1β,4 glc 1β,6 gal 1α,6 glc] tetradecakis (H-sulfate), tetradecasodium salt], the “In vivo Activity (Guinea Pig) % Inhibition” value in the assay with whole complement (30 min) is given as -25%; in the assay on whole complement (60 min), -34%; in the assay on whole complement (120 min), -60%. For the same compound, at human C1, the “C1 026 Wells” value is “+9 Wells”.
As for `O=S(=O)(O)OC[C@H]1O[C@@H](OC[C@H]2O[C@H](OC[C@H]3O[C@H](OS(=O)(=O)O)[C@H](OS(=O)(=O)O)[C@@H](OS(=O)(=O)O)[C@@H]3OS(=O)(=O)O)[C@H](OS(=O)(=O)O)[C@@H](OS(=O)(=O)O)[C@H]2OS(=O)(=O)O)[C@H](OS(=O)(=O)O)[C@@H](OS(=O)(=O)O)[C@@H]1O[C@H]1O[C@H](COS(=O)(=O)O)[C@@H](O[C@H]2O[C@H](COS(=O)(=O)O)[C@@H](OS(=O)(=O)O)[C@H](OS(=O)(=O)O)[C@H]2OS(=O)(=O)O)[C@H](OS(=O)(=O)O)[C@H]1OS(=O)(=O)O` [drawing 15, O-α-D-glucopyranosyl(1→4)-O-α-D-glucopyranosyl(1→4)-O-β-D-glucopyranosyl(1→6)-O-α-D-galactopyranosyl(1→6)-α-D-glucopyranose [(glc 1α,4)2 glc 1β,6 gal 1α,6 glc] heptadecakis(H-sulfate), heptadecasodium salt], in the assay with shunt pathway, the “Shunt Inhibition 036 Wells” value is reported as “+6 Wells”. Moreover, in the assay with human complement (C3-C9), the “C-Late 035 Wells” value is given as “+2 Wells”. Moreover, the “C1 026 Wells” value at human C1 is “+9 Wells”.
`O=S(=O)(O)OC[C@H]1O[C@@H](OC[C@H]2O[C@H](OC[C@H]3O[C@H](OS(=O)(=O)O)[C@H](OS(=O)(=O)O)[C@@H](OS(=O)(=O)O)[C@@H]3OS(=O)(=O)O)[C@H](OS(=O)(=O)O)[C@@H](OS(=O)(=O)O)[C@H]2OS(=O)(=O)O)[C@H](OS(=O)(=O)O)[C@@H](OS(=O)(=O)O)[C@H]1OS(=O)(=O)O` [drawing 7, O-β-D-galactopyranosyl(1→6)-O-α-D-galactopyranosyl(1→6)-α-D-glucopyranose [gal 1β,6 gal 1α,6 glc] undecakis (H-sulfate), undecasodium salt]: the “In vivo Activity (Guinea Pig) % Inhibition” value is -30% with whole complement (30 min), -17% with whole complement (60 min) and -56% in the assay with whole complement (120 min). Besides, the “C1 026 Wells” value on human C1 is “+9 Wells”.
Consider `O=S(=O)(O)OC[C@H]1O[C@@H](OC[C@H]2O[C@H](OC[C@H]3O[C@H](OS(=O)(=O)O)[C@H](OS(=O)(=O)O)[C@@H](OS(=O)(=O)O)[C@@H]3OS(=O)(=O)O)[C@H](OS(=O)(=O)O)[C@@H](OS(=O)(=O)O)[C@H]2OS(=O)(=O)O)[C@H](OS(=O)(=O)O)[C@@H](OS(=O)(=O)O)[C@@H]1O[C@H]1O[C@H](COS(=O)(=O)O)[C@@H](O[C@H]2O[C@H](COS(=O)(=O)O)[C@@H](OS(=O)(=O)O)[C@H](OS(=O)(=O)O)[C@H]2OS(=O)(=O)O)[C@H](OS(=O)(=O)O)[C@H]1OS(=O)(=O)O` [drawing 14, O-α-D-glucopyranosyl(1→4)-O-α-D-glucopyranosyl(1→4)-O-β-D-glucopyranosyl(1→6)-O-α-D-galactopyranosyl(1→6)-α-D-glucopyranose [(glc 1α,4)2 glc 1β,6 gal 1α,6 glc] heptadecakis(H-sulfate), heptadecasalt with trimethylamine], for which the “C-Late 035 Wells” value with human complement (C3-C9) is reported as “+1 Wells”. Further, at human C1, the “C1 026 Wells” value is listed as “+9 Wells”.
With `O=S(=O)(O)OC[C@H]1O[C@H](OC[C@H]2O[C@@H](OC[C@H]3O[C@H](OC[C@H]4O[C@H](OS(=O)(=O)O)[C@H](OS(=O)(=O)O)[C@@H](OS(=O)(=O)O)[C@@H]4OS(=O)(=O)O)[C@H](OS(=O)(=O)O)[C@@H](OS(=O)(=O)O)[C@H]3OS(=O)(=O)O)[C@H](OS(=O)(=O)O)[C@@H](OS(=O)(=O)O)[C@@H]2OS(=O)(=O)O)[C@H](OS(=O)(=O)O)[C@@H](OS(=O)(=O)O)[C@H]1OS(=O)(=O)O` [drawing 8, O-α-D-galactopyranosyl(1→6)-O-β-D-glucopyranosyl(1→6)-O-α-D-galactopyranosyl(1→6)-α-D-glucopyranose [gal 1α,6 glc 1β,6 gal 1α,6 glc] tetradecakis (H-sulfate), tetradecasalt with trimethylamine], in the assay with shunt pathway, the “Shunt Inhibition 036 Wells” value is “+5 Wells”. Further, the “C-Late 035 Wells” value with human complement (C3-C9) is on record as “+1 Wells”. Further, the “C1 026 Wells” value on human C1 is “+9 Wells”.
As for `O=S(=O)(O)OC[C@H]1O[C@@H](OC[C@H]2O[C@H](OC[C@H]3O[C@H](OS(=O)(=O)O)[C@H](OS(=O)(=O)O)[C@@H](OS(=O)(=O)O)[C@@H]3OS(=O)(=O)O)[C@H](OS(=O)(=O)O)[C@@H](OS(=O)(=O)O)[C@H]2OS(=O)(=O)O)[C@H](OS(=O)(=O)O)[C@@H](OS(=O)(=O)O)[C@H]1OS(=O)(=O)O` [drawing 6, O-β-D-galactopyranosyl(1→6)-O-α-D-galactopyranosyl(1→6)-α-D-glucopyranose [gal 1β,6 gal 1α,6 glc] undecakis (H-sulfate), undecasalt with trimethylamine], the “C1 026 Wells” value on human C1 is recorded as “+9 Wells”.
As for `O=S(=O)(O)OC[C@H]1O[C@@H](OC[C@H]2O[C@H](OC[C@H]3O[C@H](OS(=O)(=O)O)[C@H](OS(=O)(=O)O)[C@@H](OS(=O)(=O)O)[C@@H]3OS(=O)(=O)O)[C@H](OS(=O)(=O)O)[C@@H](OS(=O)(=O)O)[C@H]2OS(=O)(=O)O)[C@H](OS(=O)(=O)O)[C@@H](OS(=O)(=O)O)[C@@H]1O[C@@H]1O[C@H](COS(=O)(=O)O)[C@@H](OS(=O)(=O)O)[C@H](OS(=O)(=O)O)[C@H]1OS(=O)(=O)O` [drawing 12, O-β-D-glucopyranosyl(1→4)-O-β-D-glucopyranosyl(1→6)-O-α-D-galactopyrranosyl(1→6)-α-D-glucopyranose [glc 1β,4 glc 1β,6 gal 1α,6 glc] tetradecakis (H-sulfate), tetradecasalt with trimethylamine], the “Shunt Inhibition 036 Wells” value in the assay with shunt pathway was “+4 Wells”. Besides, at human C1, the “C1 026 Wells” value is on record as “+9 Wells”.
